From ChEMBL document CHEMBL4483862, “Open-source discovery of chemical leads for next-generation chemoprotective antimalarials” (2018)

Test system: Plasmodium berghei
Assay: Luciferase/luciferin-expressing antifolate-resistant parasites were used to infect a culture of HepG2 cells that were pre-incubated with compounds. Infected hepatocytes emit light due to the luciferase reaction. Assay results are presented as the percent inhibition of light emission compared to control. […]
Type: functional
Conditions: sporozoite; for IC90: read-out: LUCIFERASE INFECTION ASSAY - IC90
[1] = read-out: LUCIFERASE INFECTION ASSAY - IC50

Structure (SMILES)	IC90 [µM]	further results
COc1ccc(-c2nc3c(c(SCCN4CCCC4)n2)COC(C)(C)C3)cc1	> 8.26	IC50 (PBLUC_HILL_SLOPE 2.26, PBLUC_R_SQUARED 0.135, read-out: LUCIFERASE INFECTION ASSAY - IC50): 5.35 µM
O=C(Nc1nc2ccccn2c1C(=O)NC1CCCC1)c1ccccc1F	4.76	IC50 (HEPG2TOX_HILL_SLOPE 0.364, HEPG2TOX_R_SQUARED 0.251, PBLUC_HILL_SLOPE 7.71, PBLUC_R_SQUARED 0.78, read-out: LUCIFERASE INFECTION ASSAY - IC50): 3.58 µM
Nc1ncc(-c2cc(F)c(F)c(F)c2)cc1-c1cccc(O)c1	> 10.4	IC50 [1]: > 10.4 µM
CCOc1ccc(NC(=S)N/N=C2/C(=O)Nc3c(Cl)cc(Cl)cc32)cc1	1.16	IC50 (FFLUC_HILL_SLOPE 3.63, FFLUC_R_SQUARED 0.721, HEPG2TOX_HILL_SLOPE 1.01, HEPG2TOX_R_SQUARED 0.763, PBLUC_HILL_SLOPE 15.5, PBLUC_R_SQUARED 0.598, read-out: LUCIFERASE INFECTION ASSAY - IC50): 1 µM
CCc1c(C)[nH]c2cc(-c3ccc(OC)cc3)nn2c1=O	3.98	IC50 (PBLUC_HILL_SLOPE 29.9, PBLUC_R_SQUARED 0.167, read-out: LUCIFERASE INFECTION ASSAY - IC50): 3.7 µM
Cn1ccc2cc(-c3cnc4cnc(-c5cccc(C(N)=O)c5)cn34)ccc21	> 8.98	IC50 (HEPG2TOX_HILL_SLOPE 1.25, HEPG2TOX_R_SQUARED 0.898, PBLUC_HILL_SLOPE 0.953, PBLUC_R_SQUARED 0.66, read-out: LUCIFERASE INFECTION ASSAY - IC50): 1.23 µM
Cc1cc(C)c(-c2csc(NC(=O)c3cc(-c4ccccc4)nn3-c3ccccc3)n2)c(C)c1	> 10	IC50 (FFLUC_HILL_SLOPE 15.4, FFLUC_R_SQUARED 0.775, read-out: LUCIFERASE INFECTION ASSAY - IC50): > 10 µM
O=C(c1c[nH]nc1-c1ccccc1)N1CCN(S(=O)(=O)c2ccccc2)CC1	> 10	IC50 [1]: > 10 µM
CC(C)Cc1ccc(C(C)NC(=O)c2ccc(O)nc2)cc1 (stereo not drawn)	> 10	IC50 [1]: > 10 µM
Cc1cc2oc(=O)cc(Cn3cnc4sc(C)c(-c5ccccc5)c4c3=O)c2cc1Cl	> 10	IC50 (FFLUC_HILL_SLOPE 8.53, FFLUC_R_SQUARED 0.709, PBLUC_HILL_SLOPE 1.77, PBLUC_R_SQUARED 0.508, read-out: LUCIFERASE INFECTION ASSAY - IC50): 4.81 µM
Oc1ccc(Cl)cc1/C=C/c1ccc2cccc(O)c2n1	6.73	IC50 (HEPG2TOX_HILL_SLOPE 5.53, HEPG2TOX_R_SQUARED 0.986, PBLUC_HILL_SLOPE 37.8, PBLUC_R_SQUARED 0.36, read-out: LUCIFERASE INFECTION ASSAY - IC50): 6.35 µM
CCCCCCN(C(=O)Cn1ccsc1=N)c1nc(-c2ccccc2)cs1	> 10	IC50 (FFLUC_HILL_SLOPE 258, FFLUC_R_SQUARED 0.634, read-out: LUCIFERASE INFECTION ASSAY - IC50): > 10 µM
Cc1cc(/C=C(\C#N)c2nc3ccccc3s2)c(C)n1-c1ccc(F)cc1	> 10	IC50 [1]: > 10 µM
CC(C)(C)c1ccccc1NC(=O)c1csc(N2CCN(CCc3ccccc3)C2=O)n1	> 10	IC50 (PBLUC_HILL_SLOPE 20.4, PBLUC_R_SQUARED 0.59, read-out: LUCIFERASE INFECTION ASSAY - IC50): 9.01 µM
CN(CC(=O)Nc1ccc(Cl)c(C(F)(F)F)c1)c1nc(CN2CCCCC2)nc2sc3c(c12)CCCC3	9.99	IC50 (HEPG2TOX_HILL_SLOPE 2.23, HEPG2TOX_R_SQUARED 0.93, PBLUC_HILL_SLOPE 4.09, PBLUC_R_SQUARED 0.44, read-out: LUCIFERASE INFECTION ASSAY - IC50): 5.84 µM
NC(/C=C/c1cc(C(F)(F)F)cc(C(F)(F)F)c1)=N\O	> 11.1	IC50 [1]: > 11.1 µM
O=C(CN1CCn2cccc2C1c1ccccc1)N1CCc2sccc2C1 (stereo not drawn)	4.34	IC50 (PBLUC_HILL_SLOPE 14, PBLUC_R_SQUARED 0.298, read-out: LUCIFERASE INFECTION ASSAY - IC50): 3.71 µM
CC1Cc2ccccc2N1C(=O)CSC1=NNC(=C2N=Nc3ccccc32)N1c1ccccc1 (stereo not drawn)	8.33	IC50 (FFLUC_HILL_SLOPE 19.6, FFLUC_R_SQUARED 0.491, PBLUC_HILL_SLOPE 5.23, PBLUC_R_SQUARED 0.568, read-out: LUCIFERASE INFECTION ASSAY - IC50): 5.48 µM
CC(Nc1ncnc2ccsc12)c1nc2ccccc2n1C(F)F (stereo not drawn)	7.92	IC50 (HEPG2TOX_HILL_SLOPE 1.22, HEPG2TOX_R_SQUARED 0.959, PBLUC_HILL_SLOPE 2.24, PBLUC_R_SQUARED 0.732, read-out: LUCIFERASE INFECTION ASSAY - IC50): 2.97 µM
CCCCCC(=O)Nc1ccc(C2=Nn3c(Cc4cccc5ccccc45)nnc3SC2)cc1	> 10	IC50 (HEPG2TOX_HILL_SLOPE 0.272, HEPG2TOX_R_SQUARED 0.219, PBLUC_HILL_SLOPE 1.92, PBLUC_R_SQUARED 0.644, read-out: LUCIFERASE INFECTION ASSAY - IC50): 7.04 µM

Structure (SMILES)	IC90 [µM]	further results
CC(C)Cn1c(-c2ccccc2F)nc2c(c(=O)c3ccccc3n2C)c1=O	7.64	IC50 (PBLUC_HILL_SLOPE 4.02, PBLUC_R_SQUARED 0.715, read-out: LUCIFERASE INFECTION ASSAY - IC50): 4.42 µM
CCN1C(=O)N(CCCc2cccnc2)C(=O)C12CCN(Cc1ccc(-c3ccccc3C)cc1)CC2	2.68	IC50 (HEPG2TOX_HILL_SLOPE 4.7, HEPG2TOX_R_SQUARED 0.961, PBLUC_HILL_SLOPE 9.72, PBLUC_R_SQUARED 0.497, read-out: LUCIFERASE INFECTION ASSAY - IC50): 2.14 µM
FC(F)(F)c1ccnc(N2CCN(C(c3ccccc3)c3ccccc3)CC2)c1	> 8.3	IC50 (PBLUC_HILL_SLOPE 1.54, PBLUC_R_SQUARED 0.0984, read-out: LUCIFERASE INFECTION ASSAY - IC50): > 8.3 µM
COc1cc(C(=O)NNC(=O)c2ccc(Br)cc2)ccc1OCc1c(C)noc1C	7.1	IC50 (HEPG2TOX_HILL_SLOPE 1.09, HEPG2TOX_R_SQUARED 0.959, PBLUC_HILL_SLOPE 2.18, PBLUC_R_SQUARED 0.498, read-out: LUCIFERASE INFECTION ASSAY - IC50): 2.59 µM
COC(=O)c1c(C)[nH]c(C(=O)CSc2nnc(C)s2)c1C	> 10	IC50 [1]: > 10 µM
CN(CC(=O)Nc1nc(C23CC4CC(CC(C4)C2)C3)cs1)C(=O)c1ccco1	4.63	IC50 (HEPG2TOX_HILL_SLOPE 8.2, HEPG2TOX_R_SQUARED 0.447, PBLUC_HILL_SLOPE 10.5, PBLUC_R_SQUARED 0.337, read-out: LUCIFERASE INFECTION ASSAY - IC50): 3.76 µM
O=C(NCCC1=CCCCC1)c1cccc(N2CCCC2=O)c1	> 10	IC50 (FFLUC_HILL_SLOPE 0.738, FFLUC_R_SQUARED 0.473, PBLUC_HILL_SLOPE 0.427, PBLUC_R_SQUARED 0.183, read-out: LUCIFERASE INFECTION ASSAY - IC50): > 10 µM
Cn1cnc([N+](=O)[O-])c1Sc1cccs1	> 13.7	IC50 (FFLUC_HILL_SLOPE 1.45, FFLUC_R_SQUARED 0.647, PBLUC_HILL_SLOPE 13.1, PBLUC_R_SQUARED 0.224, read-out: LUCIFERASE INFECTION ASSAY - IC50): > 13.7 µM
Cc1cc(C(C)(C)C)ccc1OC(=O)c1sc2nc3n(c(=O)c2c1C)CCCCC3	> 10	IC50 [1]: > 10 µM
c1ccc(Oc2ccccc2-c2cnc3c(NCCc4cccnc4)nccn23)cc1	7.62	IC50 (HEPG2TOX_HILL_SLOPE 47.6, HEPG2TOX_R_SQUARED 0.873, PBLUC_HILL_SLOPE 7.25, PBLUC_R_SQUARED 0.536, read-out: LUCIFERASE INFECTION ASSAY - IC50): 5.63 µM
NC(=O)c1ccc(-c2cc(-c3ccc(F)c(Cl)c3)cnc2N)cc1	4.41	IC50 (PBLUC_HILL_SLOPE 12.5, PBLUC_R_SQUARED 0.242, read-out: LUCIFERASE INFECTION ASSAY - IC50): 3.7 µM
O=C(Nc1ccc2nc(-c3ccccc3Cl)[nH]c2c1)c1ccc(=O)[nH]n1	4.84	IC50 (HEPG2TOX_HILL_SLOPE 0.281, HEPG2TOX_R_SQUARED 0.366, PBLUC_HILL_SLOPE 7.23, PBLUC_R_SQUARED 0.542, read-out: LUCIFERASE INFECTION ASSAY - IC50): 3.58 µM
O=C(NCCOc1ccccc1F)NCC1CC1	> 10	IC50 [1]: > 10 µM
CCOCCCn1c(SCC(=O)Nc2scc(C3CC3)c2C(=O)OCC)nnc1-c1ccc(Cl)cc1	> 10	IC50 [1]: > 10 µM
Oc1ccc(/C=C/c2ccc3cccc(O)c3n2)cc1	5.07	IC50 (HEPG2TOX_HILL_SLOPE 13.8, HEPG2TOX_R_SQUARED 0.969, PBLUC_HILL_SLOPE 21.8, PBLUC_R_SQUARED 0.339, read-out: LUCIFERASE INFECTION ASSAY - IC50): 4.58 µM
Clc1cccc(-c2cn3c(-c4ccncc4)cnc3cn2)c1	> 10.8	IC50 (FFLUC_HILL_SLOPE 4.91, FFLUC_R_SQUARED 0.112, HEPG2TOX_HILL_SLOPE 0.251, HEPG2TOX_R_SQUARED 0.199, PBLUC_HILL_SLOPE 3.54, PBLUC_R_SQUARED 0.544, read-out: LUCIFERASE INFECTION ASSAY - IC50): 6.34 µM
N#Cc1cccc(CN2CCN3C(C(=O)Nc4ccc(-n5cccc5)cc4)=COC3=NC2=O)c1	> 10	IC50 [1]: > 10 µM
CN(CC(=O)Nc1ccc(Cl)c(S(=O)(=O)N2CCOCC2)c1)C(=O)/C=C/c1cccs1	> 10	IC50 (HEPG2TOX_HILL_SLOPE 0.594, HEPG2TOX_R_SQUARED 0.62, read-out: LUCIFERASE INFECTION ASSAY - IC50): > 10 µM
O=C(Nc1ccccc1)Nc1ccc(Cl)c(Cl)c1	9.61	IC50 (HEPG2TOX_HILL_SLOPE 12, HEPG2TOX_R_SQUARED 0.666, PBLUC_HILL_SLOPE 4.82, PBLUC_R_SQUARED 0.734, read-out: LUCIFERASE INFECTION ASSAY - IC50): 6.09 µM
